# Measurements from patent publication US6255347A (priority 1997, dated 2001).
# Several values for one entry are separate records, joined by “and”; a condition that tells them apart may be missing. Equal values may be shown once. Entries after “also recorded” stand apart in the source; their conditions may differ. Where a name gives a salt, the structure may show the parent alone. Read-outs that look alike come from different tables or passages of the source. *1 amine or outer side, *2 acyl side, *3 side chain or, on linkers, in order; H or OH if unused. Where a SMILES comes first, the peptide text is derived from it. Bridges are numbered along the chain shown (N, C = ends). Roman numbers before positions name the chains, in order. [ ]: non-standard residue; d: D form. Actinocin(9to1) = Cc1c2oc3c(C)ccc(C(=O)[*:1])c3nc-2c(C(=O)[*:2])c(N)c1=O; NMeV = CN[C@H](C(=O)O)C(C)C; Sar = CNCC(=O)O
# Columns and labels:
# [1] = system: APPs secretion by NIH 3T3 cell lines; settings: 50 μM; for Density of APPs band: 20 h culture, n = 2, mean ± S.D.
# [2] = system: APPs secretion by NIH 3T3 cell lines; assay: cells; settings: Mus musculus, NIH3T3, 20 h, read-out: fold increase of APPs secretion
# [3] = cited from earlier work
# [4] = system: NIH 3T3 cells; assay: Foci formation assay, inhibition of PMA induced neoplastic transformation of NIH 3T3 cells; type: cell-based; settings: PMA 0.02 μg/ml, 2% FBS
# Description: (§1) NIH 3T3 cells (American Type Culture Collection, Rockville, Md.) were cultured in DMEM supplemented with 10% FBS inoculated at 10^4 cells/35 […] dish. […] PMA and ibuprofen were dissolved in DMSO and stored in 5% DMSO stock solutions that were diluted a 1000-fold with culture media prior to use. […] The media containing freshly added PMA and ibuprofen were changed every 60 hours for both the foci formation assay and PKCα analysis by Western blot.
# Subsequent to washing with a tris/ saline buffer, the cells were stained with a solution of 4% aqueous Giemsa stain in phosphate buffer (pH 7.0). Foci of transformed cells were then visible by eye due to their high local density and verified by under light microscopy.
# [5] = system: PKCα; assay: PKCα translocation in NIH 3T3 cells (subcellular fractionation, Western blot); type: cell-based; settings: 10 μg/ml
# Description: as §1
# The cells were washed twice with phosphate-buffered saline (PBS) at 37° C. and subsequently lysed and scraped in 1 ml ice-cold protein lysis buffer (20 mM Tris-HCl, pH7.4, 2 mM EGTA, 2 mM EDTA, […] leupeptin and […] aprotinin) at 4° C. […] Briefly, cells were homogenized 10× in 15 ml glass homogenizer with a tight-fitting pestle and centrifuged at 900×g for 10 min. The resulting supernatant was then centrifuged at 100,000×g for 60 min to produce a nucleus-free membrane fraction (pellet) and a cytosol fraction (supernatant) for Western blots. The 900×g nuclear pellet was suspended in the 2 ml lysis buffer containing 10% sucrose and 0.1% Triton X-100 and washed twice by centrifuging at 1000×g for 10 min, then resuspended in 1 ml of the same buffer without Triton X-100 for Western blots. The purity of the fractions was monitored by light microscopy. […] The samples were stored at -70° C. until analysis.
# 15 μl of human plasma, 15 μl of rat plasma, CSF or 50 μg of rat brain protein were denatured with 35 μl of sample buffer at 95° C. for 4 min. Denatured proteins were separated by 10% SDS-polyacrylamide gel electrophoresis with a 50 μg or 20 μg protein load for each sample for APPs or PKC, respectively, and electrophoretically transferred from gel to nitrocellulose membrane. […] The immunoreactive bands were developed using enhanced chemilumenescence (ECL. Amersham Life Sci., Little Chalfont, UK), following extensive washing with the blocking buffer. The PKC bands were verified in each case by competitively blocking the signal with the peptide corresponding to each of PKCs. The bands were quantitated by scanning densitometry. Quantitative comparisons were made between samples processed simultaneously on one blot.
# [6] = molecular target: T1, PKC (Rattus norvegicus, UniProt P05696); assay: Protein kinase C activity assay (histone phosphorylation, partially purified rat brain PKC); type: biochemical; settings: PMA stimulated, 2 min, 30° C.
# T1 construct: Partially purified PKCα from rat brain; purchased Promega (Madison, Wis.); host or cells: rat brain (tissue enzyme, partially purified)
# Description: The following were obtained from the Sigma Chemical Co. (St. […] Anti-PKCα antibody (affinity purified) and its C-terminal region peptide was obtained from Life Technologies (Gaithersburg, Md.). […] All other chemicals were of the highest available purity and were obtained from standard commercial sources. […] Following 2 min initial incubation at 30° C., kinase reactions were initiated by the addition of ^32 P-γ-ATP and enzyme and continued at 30° C. for 2 min. Control incubations contained all assay components except enzyme and ibuprofen. […] All samples were carried out in duplicate.
# [7] = system: rat stomach and duodenum; assay: Gastric ulcer index / gastroduodenal lesions in rat; type: in vivo
# Description: Male Sprague-Dawley rats (12 month) were obtained from Harlan-Sprague-Dawley, Inc. (Indianapolis, Ind.) and housed under controlled conditions of temperature humidity and light/dark cycle. […] Rat blood, brain and 50 μl of cerebrospinal fluid were collected and stored at -70° C. for APPs and PKC analysis by Western blotting. Rat stomach and duodenum were collected for the quantitation of gastroduodenal lesions.
# The rat stomach and first 12 cm of the duodenum were opened and carefully shed with saline to remove any residual debris and fixed in 10% buffered formaldehyde. Tissues were examined macroscopically (×10) for lesions and hemorrhages. The evaluation of lesions or hemorrhages was based on the ulcer index (UI) reported by Leyck et al. (1985) and expressed as the sum total of lesions per treatment. The scoring units used ranged from 0 to 5, where zero represents no macroscopically visible lesions; 1 represents one to three small ulcers less than 4 mm; 2 represents more than three small ulcers; 3 represents ulcer hemorrhages with several small ulcers; 4 represents large (>4 mm) ulcers; 5 indicates tissue perforation.
# [8] = system: cyclooxygenase; settings: cited from earlier work
# [9] = system: human neoplastic diseases; settings: cited from earlier work
smiles,measurement,setting,value
CC(C(=O)O)c1cccc(Oc2ccccc2)c1 (racemic) [RS-Fenoprofen],Density of APPs band,[1],6.36 ± 0.77
same,fold induction at 50 µM,[2],1.6
CC(C(=O)O)c1ccc(-c2ccccc2)c(F)c1 (racemic) [RS-Flubiprofen],Density of APPs band,[1],3.07 ± 0.34
"Cc1c2oc3c(C)ccc(C(=O)N[C@@H]4C(=O)N[C@H](C(C)C)C(=O)N5CCC[C@H]5C(=O)N(C)CC(=O)N(C)[C@@H](C(C)C)C(=O)O[C@@H]4C)c3nc-2c(C(=O)N[C@@H]2C(=O)N[C@H](C(C)C)C(=O)N3CCC[C@H]3C(=O)N(C)CC(=O)N(C)[C@@H](C(C)C)C(=O)O[C@@H]2C)c(N)c1=O [Actinomycin D] (I: T[dV]P[Sar][NMeV] / II: T[dV]P[Sar][NMeV]; ester I:1-I:C, II:1-II:C; linker I:N-II:N via Actinocin(9to1))",elimination half-life,[3]; in vivo,about 36 hr
same,excreted in urine,[3]; in vivo,10%
same,excreted intact into the bile (in words),[3]; in vivo,Half of the dose
same,passage of blood-brain barrier,[3]; in vivo,does not pass the blood-brain barrier
"O=C(O)CCCc1ccc(N(CCCl)CCCl)cc1 [Chlorambucil, 4-[bis(2-chlorethyl)amino]benzenebutanoic acid]",terminal half-life,[3]; in vivo,1.5 h
N.N.[Cl][Pt][Cl] [Cisplatin],absorption (in words),[3]; oral,not absorbed orally
"COc1cccc2c1C(=O)c1c(O)c3c(c(O)c1C2=O)C[C@@](O)(C(C)=O)C[C@@H]3O[C@H]1C[C@H](N)[C@H](O)[C@H](C)O1 [Daunorubicin, 5,12-Naphthacenedione, (8S-cis)-8-acetyl-10-[(3-amino-2,3,6-trideoxy-α-L-lyxo-hexanopyranosyl)oxy]-7,8,9,10-tetrahydro-6,8, 11-trihydroxy-10-methoxy-, hydrochloride]",absorption (in words),"[3]; in vivo, po",Oral absorption is poor
same,secreted into the bile,[3]; in vivo,~40%
"COc1cccc2c1C(=O)c1c(O)c3c(c(O)c1C2=O)C[C@@](O)(C(=O)CO)C[C@@H]3O[C@H]1C[C@H](N)[C@H](O)[C@H](C)O1 [Doxorubicin, 5,12-Naphthacenedione, (8s-cis)-10-[(3-amino-2,3,6-trideoxy-a-L-lyxo-hexopyranosyl)oxy]-7,8,9,10-tetrahydro-6,8,11 trihydroxy-8-(hydroxyacetyl)-1-methoxy-hydrochloride]",absorption (in words),"[3]; in vivo, po",absorbed poorly
same,elimination half-life,[3]; in vivo,about 30 hr
same,excreted in urine,[3]; in vivo,a few percent
CO[C@@]12[C@H](COC(N)=O)C3=C(C(=O)C(C)=C(N)C3=O)N1C[C@@H]1N[C@@H]12 [Mitomycin],time required to reduce the serum concentration by 50%,"[3]; human, in vivo, iv",17 min
same,clearance from serum (in words),"[3]; in vivo, iv",rapidly cleared from the serum
same,excreted in urine,[3]; in vivo,Approximately 10%
CN1C(C(=O)Nc2ccccn2)=C(O)c2ccccc2S1(=O)=O [Proxicam],Density of APPs band,[1],3.29 ± 0.77
C[C@@H](C(=O)O)c1cccc(Oc2ccccc2)c1 [R-Fenoprofen],Density of APPs band,[1],5.32 ± 1.29
same,fold induction at 50 µM,[2],1.3
C[C@@H](C(=O)O)c1ccc(-c2ccccc2)c(F)c1 [R-Flubiprofen],Density of APPs band,[1],3.30 ± 0.81
C[C@@H](C(=O)O)c1cccc(C(=O)c2ccccc2)c1 [R-Ketoprofen],Density of APPs band,[1],3.41 ± 0.39 and 2.74 ± 0.34
CC(C(=O)O)c1cccc(C(=O)c2ccccc2)c1 (centres unmarked) [RS-Ketoprofen],Density of APPs band,[1],3.67 ± 0.27 and 2.94 ± 0.98
C[C@H](C(=O)O)c1cccc(Oc2ccccc2)c1 [S-Fenoprofen],Density of APPs band,[1],5.32 ± 1.53
same,fold induction at 50 µM,[2],1.3
C[C@H](C(=O)O)c1ccc(-c2ccccc2)c(F)c1 [S-Flubiprofen],Density of APPs band,[1],2.37 ± 0.66
C[C@H](C(=O)O)c1cccc(C(=O)c2ccccc2)c1 [S-Ketoprofen],Density of APPs band,[1],2.99 ± 0.57 and 3.76 ± 1.26
CC(C)Cc1ccc([C@H](C)C(=O)O)cc1 [S-ibuprofen],"inhibition of foci formation, enantiomers compared to racemate",[4],more pronounced than that of the racemate; also recorded: more effective than the racemic mixture
same,inhibition of PMA induced foci formation / neoplastic transformation,"[4]; 6 weeks, ibuprofen 10 or 100 μg/ml",dramatically decreased; also recorded: inhibit the neoplastic transformation; also recorded: substantially inhibited
same,inhibition of PKCα translocation from cytosol to nuclear compartments,[5]; PMA 4 hours,clearly modulated the time dependent intracellular redistribution of PKCα
same,"inhibition of PKCα translocation, racemate versus enantiomers",[5]; particularly 2 weeks of PMA,more effective than the racemic mixture
same,concentration inhibiting PKC mediated histone phosphorylation,[6],1 µM
same,"Bleeding site (B), column 1","[7]; 10 mg/kg bid, 7 days, column 1",4
same,gastropathy (in words),"[7]; rat, in vivo",induced serious gastric ulcers and hemorrhage
same,capability to inhibit cyclooxygenase (in words),[8],inhibition of cyclooxygenase activity by ibuprofen resides almost exclusively in the S-enantiomer
same,"potency in suppressing prostaglandin formation, S- versus R-ibuprofen",[8]; from arachidonic acid,approximately 100 times
CC[C@]1(O)C[C@@H]2CN(CCc3c([nH]c4ccccc34)[C@@](C(=O)OC)(c3cc4c(cc3OC)N(C)[C@H]3[C@@](O)(C(=O)OC)[C@H](OC(C)=O)[C@]5(CC)C=CCN6CC[C@]43[C@@H]65)C2)C1 [Vinblastine],cases with significant improvement,"[9]; lymphomas, particularly Hodgkin's disease",50 to 90%
same,excreted in urine,[3]; in vivo,Approximately 15%
same,recovered in the feces,[3]; in vivo,about 10%
CC[C@]1(O)C[C@H]2CN(CCc3c([nH]c4ccccc34)[C@@](C(=O)OC)(c3cc4c(cc3OC)N(C=O)[C@H]3[C@@](O)(C(=O)OC)[C@H](OC(C)=O)[C@]5(CC)C=CCN6CC[C@]43[C@@H]65)C2)C1 [Vincristine],concentration in blood cells (in words),[3]; in vivo,extensively concentrated in platelets and to a lesser extent in leukocytes and erythrocytes
same,absorption (in words),[3]; oral,Unpredictable absorption
"CS(=O)(=O)OCCCCOS(C)(=O)=O [busulfan, 1,4-butanediol dimethanesulfonate]",patients obtaining hematologic remission,"[9]; previously untreated chronic myelogenous leukemia, adults",Approximately 90%
COc1cccc2c1C(=O)c1c(O)c3c(c(O)c1C2=O)C[C@@](O)(C(C)O)C[C@@H]3O[C@H]1C[C@H](N)[C@H](O)[C@H](C)O1 (some centres unmarked) [daunorubicinol],elimination half-life,[3]; in vivo,about 27 hr
CC(C(=O)O)c1cccc(Oc2ccccc2)c1 (centres unmarked) [fenoprofen],APPs secretion (in words),[1]; 20 h,increased APPs secretion
